From US20180044305A1, “3-SUBSTITUTED 1,3,4-OXADIAZOLE AND THIADIAZOLE COMPOUNDS AS IMMUNOMODULATORS” (AURIGENE DISCOVERY TECHNOLOGIES LIMITED, priority 2015, published 2018)

Target: T1, Recombinant mouse PD-L1 (Mus musculus, UniProt Q9EP73)
T1 construct: Fc (Fc chimera); purchased R&D Systems 1019-B7-100
Assay: Rescue of mouse splenocyte proliferation in the presence of recombinant PD-L1 (CFSE proliferation assay)
Format: cell-based
Conditions: compound at 100 nM; CFSE-labelled mouse splenocytes + anti-CD3/CD28 + PD-L1, 72 h; normalised to stimulated splenocyte proliferation as 100%
Description: Example 3: Rescue of Mouse Splenocyte Proliferation in the Presence of Recombinant PD-L1
Recombinant mouse PD-L1 (rm-PDL-1, cat no: 1019-B7-100; R&D Systems) were used as the source of PD-L1.
Mouse splenocytes harvested from 6-8 weeks old C57 BL6 mice; RPMI 1640 (GIBCO, Cat #11875); DMEM with high glucose (GIBCO, Cat #D6429); Fetal Bovine Serum [Hyclone, Cat #SH30071.03]; Penicillin (10000 unit/mL)-Streptomycin(10,000 μg/mL) Liquid (GIBCO, Cat #15140-122); MEM Sodium Pyruvate solution 100 mM (100×), Liquid (GIBCO, Cat #11360); Nonessential amino acid (GIBCO, Cat #11140); L-Glutamine (GIBCO, Cat #25030); Anti-CD3 antibody (eBiosciences—16-0032); Anti-CD28 antibody (eBiosciences—16-0281); ACK lysis buffer (1 mL) (GIBCO, Cat #-A10492); Histopaque (density—1.083 gm/mL) (SIGMA 10831); Trypan blue solution (SIGMA-T8154); 2 mL Norm Ject Luer Lock syringe-(Sigma 2014-12); 40 µm nylon cell strainer (BD FALCON 35230); Hemacytometer (Bright line-SIGMA Z359629); FACS Buffer (PBS/0.1% BSA): Phosphate Buffered Saline (PBS) pH 7.2 (HiMedia TS1006) with 0.1% Bovine Serum Albumin (BSA) (SIGMA A7050) and sodium azide (SIGMA 08591); 5 mM stock solution of CFSE: CFSE stock solution was prepared by diluting lyophilized CFSE with […] of Dimethyl sulfoxide (DMSO C2H6SO, SIGMA-D-5879) and aliquoted in to tubes for further use. Working concentrations were titrated from […] to 1 μM. (eBioscience—650850-85); 0.05% Trypsin and 0.02% EDTA (SIGMA 59417C); 96-well format ELISA plates (Corning CLS3390); BD FACS caliber (E6016); Recombinant mouse B7-H1/PDL1 Fc Chimera, (rm-PD-L1 cat no: 1019-B7-100).
Splenocytes harvested in a 50 mL falcon tube by mashing mouse spleen in a 40 µm cell strainer were further treated with 1 mL ACK lysis buffer for 5 min at room temperature. After washing with 9 mL of RPMI complete media, cells were re-suspended in 3 mL of 1×PBS in a 15 mL tube. 3 mL of Histopaque was added carefully to the bottom of the tube without disturbing overlaying splenocyte suspension. After centrifuging at 800×g for 20 min at room temperature, the opaque layer of splenocytes was collected carefully without disturbing/mixing the layers. Splenocytes were washed twice with cold 1×PBS followed by total cell counting using Trypan Blue exclusion method and used further for cell based assays.
Splenocytes were cultured in RPMI complete media (RPMI+10% fetal bovine serum+1 mM sodium pyruvate+10,000 units/mL penicillin and […] streptomycin) and maintained in a CO2 incubator with 5% CO2 at 37° C.
CFSE is a dye that passively diffuses into cells and binds to intracellular proteins. 1×10^6 cells/mL of harvested splenocytes were treated with […] of CFSE in pre-warmed 1×PBS/0.1% BSA solution for 10 min at 37° C. Excess CFSE was quenched using 5 volumes of ice-cold culture media to the cells and incubated on ice for 5 min. CFSE labelled splenocytes were further given three washes with ice cold complete RPMI media. […] Cells were harvested and washed thrice with ice cold FACS buffer and % proliferation was analysed by flow cytometry with 488 nm excitation and 521 nm emission filters.
Percent splenocyte proliferation was analysed using cell quest FACS program and percent rescue of splenocyte proliferation by compound was estimated after deduction of % background proliferation value and normalising to % stimulated splenocyte proliferation (positive control) as 100%. […]

T1 sequence (Q9EP73 with tags, fused parts or gaps limits assumed): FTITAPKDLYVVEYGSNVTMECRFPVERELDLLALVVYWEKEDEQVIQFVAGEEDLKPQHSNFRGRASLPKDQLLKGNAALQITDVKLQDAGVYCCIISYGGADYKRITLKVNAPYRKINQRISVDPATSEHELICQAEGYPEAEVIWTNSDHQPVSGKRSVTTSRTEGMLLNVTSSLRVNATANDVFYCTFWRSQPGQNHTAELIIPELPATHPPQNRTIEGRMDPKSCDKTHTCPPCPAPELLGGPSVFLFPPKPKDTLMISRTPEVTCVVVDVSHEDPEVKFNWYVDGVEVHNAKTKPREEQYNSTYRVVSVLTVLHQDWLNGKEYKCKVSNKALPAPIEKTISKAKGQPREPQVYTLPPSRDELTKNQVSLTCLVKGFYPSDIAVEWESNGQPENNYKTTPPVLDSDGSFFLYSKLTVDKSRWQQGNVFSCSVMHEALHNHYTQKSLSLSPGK

Percent rescue of splenocyte proliferation (@100 nM)	Structure (SMILES)
60%	COc1ccccc1-c1nnc([C@H](CC(N)=O)NC(=O)N[C@@H](CCCCN)C(=O)O)o1 [Compound 11]
15%	COc1ccccc1-c1nnc([C@H](CC(N)=O)NC(=O)N[C@@H](CCSC)C(=O)O)o1 [Compound 12]

Continued, compound first:

Structure (SMILES)	Percent rescue of splenocyte proliferation (@100 nM)
CC(O)[C@H](NC(=O)N[C@H](c1nnc(-c2ccco2)o1)C(C)C)C(=O)O (some centres unmarked) [Compound 7]	28%
CC(O)[C@H](NC(=O)N[C@@H](CC(N)=O)c1nnc(-c2cnccn2)o1)C(=O)O (some centres unmarked) [Compound 13]	63%
COc1ccccc1-c1nnc([C@H](CC(N)=O)NC(=O)N[C@H](C(=O)O)C(C)O)o1 (some centres unmarked) [Compound 16]	7%
